# Measured values taken from patent US20200306210A1 (ZOGENIX INTERNATIONAL LIMITED, priority 2017, published 2020).
# Counter-ions that a name gives are not always drawn.
# Legend:
# [1] = system: children and young adults with Dravet syndrome; assay: Study 1: randomized, double-blind, placebo-controlled trial of ZX008, monthly convulsive seizure frequency (MCSF); type: in vivo, Human; conditions: for Longest seizure free interval, estimate of median treatment difference: Hodges-Lehman estimator; for Greater reduction in mean MCSF compared with placebo: 14-week treatment period; for Near-seizure freedom (0 or a single seizure during 14-week Treatment Period), % of subjects / Near-seizure freedom (0 or a single seizure during 14-week Treatment Period), number of subjects: post-hoc analysis
# Description: Human patients, age 2 to 18 years, inclusive, having a documented medical history to support a clinical diagnosis of Dravet syndrome and a history of seizures (either generalized tonic-clonic or unilateral clonic or bilateral clonic, and prolonged) were recruited, and selected for inclusion in the study according to criteria comprising a combination of age, physical and psychological characteristics, and (optionally) resistance to treatment with conventional therapies. Included subjects were assessed over the course of this 22-week study. The study protocols were reviewed and approved by the institutional review board or ethics committee for each study site before any study activation at the site. All patients or their legal representatives signed informed consent/assent prior to enrolling in the trial.
# Subjects had ≥4 convulsive seizures (tonic, tonic atonic, tonic-clonic, clonic) per 4-week period for past 12 weeks prior to screening, by parent/guardian report to investigator or investigator medical notes.
# Potential subjects enrolled in a 6-week baseline to establish seizure frequency and determine eligibility. Seizures were documented by parents or caregivers in an electronic study diary as to date, time of day, duration, and seizure type. To qualify for randomization each subject must have had ≥6 convulsive seizures during the baseline period with ≥2 in the first 3 weeks and ≥2 in the last 3 weeks. For this study convulsive seizures were defined as hemiclonic, tonic, clonic, tonic-atonic, generalized tonic-clonic, and focal with clear observable motor signs. The six-week Baseline Period started with a screening visit followed by an observation period where subjects were assessed for baseline seizure activity based on recordings of daily seizure activity entered into the diary.
# Randomization was double-blind and stratified by age group (<6 years, ≥6 years) across treatment groups. A placebo solution, identical in appearance and taste, was also provided. Daily doses were administered with food in 2 equal doses, one in the morning and one in the evening approximately 12 hours apart. […] The other groups underwent dummy titrations to maintain the blind. Patients were maintained on their final dose for an additional 12 weeks (the Maintenance Period). At the conclusion of the Treatment Period (Titration plus Maintenance), eligible patients electing to continue in an optional open-label extension (OLE) study underwent a 2-week transition period, whereas patients exiting the study underwent a 2-week taper and follow-up.
# ZX008 was supplied as an oral solution in concentrations of 1.25, 2.5, and 5 mg/mL. Subjects will be randomized to receive 1 of 2 doses of ZX008 (0.2 mg/kg/day, 0.8 mg/kg/day; up to 30 mg/day) or placebo. Study medication will be administered twice a day (BID) in equally divided doses with food. To the placebo group, as a negative control, an oral solution not containing fenfluramine was administered.
# Monthly convulsive seizure frequency (MCSF) was expressed per 28 days. The primary end point was the change in mean MCSF) between the baseline period and the combined titration and maintenance periods in subjects treated with ZX008 0.8 mg/kg/day compared with the group treated with placebo. Five key secondary end points were pre-specified: the comparison of the ZX008 0.2 mg/kg/day group with placebo for the change in MCSF between baseline and the combined titration and maintenance periods, comparison of both ZX008 groups independently with placebo on the proportion of subjects who achieved a ≥50% reduction from baseline in MCSF and the comparison of both ZX008 groups with placebo on the longest seizure-free interval observed in each group. A serial gatekeeping procedure was used to maintain the simultaneous type 1 error rate at α=0.05 across the analyses of the primary and 5 key secondary end points. […]
# [2] = system: children and young adults with Dravet syndrome; assay: Study 1: Behavior Rating Inventory of Executive Function (BRIEF); type: in vivo, Human; conditions: for BRIEF Global Executive Composite, change from baseline, mean: raw scores, negative = improvement
# Description: In the BRIEF test, the parent/caregiver and/or the patient (e.g., child or adolescent self-reporting) responds to a series of statements or questions in the form of questionnaires, where an answer of “N”=Never a problem, “S”=Sometimes a problem, and “O”=Often a problem are used to indicate that the behavior being described or assessed has occurred in the past 6 months.
# Each questionnaire of the BRIEF parent- and teacher-rating form contains 86 items in eight non-overlapping clinical scales and two validity scales. Based on theoretical and empirical analyses (reviewed in chapter 5 of Gioia, Ibid.), the clinical scales combine to form two indexes: a) Behavioral Regulation (three scales) and b) Metacognition (five scales), as well as a Global Executive Composite (GEC), which is a summary score that takes into account all eight clinical scales of the BRIEF and represents the child's overall executive function. There are also two validity scales to measure Negativity and Inconsistency of responses. Scores on the Negativity scale measures the extent to which the respondent answered selected items in an unusually negative manner whereas scores on the Inconsistency scale indicate the extent to which the respondent answered similar items in an inconsistent manner.
# The BRIEF (BRIEF-A or BRIEF-P) were administered at the time of patient randomization (on visit 3, which was one day before (study day “−1”) treatment began (study day 1)); the BRIEF was administered again during visit 8 (study day 43), and at the end of the study (visit 12, study day 99) to assess cognitive function.
# The incidence of treatment-emergent adverse events (TEAEs) was monitored continuously during the study. TEAEs were graded by the investigator as mild, moderate, or severe, and related or not related to study medication. Vital signs, height, weight, and clinical laboratory evaluations were performed at each study visit. The Behavior Rating Inventory of Executive Function (BRIEF) was administered at baseline and periodically during the treatment period to assess for any effects of treatment on cognitive function. Doppler echocardiography (ECHOs) and 12-lead electrocardiography (ECGs) were performed during the screening/baseline period, after 6 weeks of treatment, and after 14 weeks of treatment at the end of the maintenance period. The ECGs and ECHOs were evaluated by two independent cardiologists who were blind to treatment randomization. In the event of disagreement, a third cardiologist arbitrated the decision.
compound,measurement,setting,value
"CCNC(C)Cc1cccc(C(F)(F)F)c1 (stereo not shown) [ZX008, fenfluramine hydrochloride]","Longest seizure free interval, estimate of median treatment difference",[1]; 0.2 mg/kg/day vs placebo,-5.0 days
same,Greater reduction in mean MCSF compared with placebo,[1]; 0.2 mg/kg/day,33.7%
same,Reduction from baseline in mean MCSF,"[1]; 0.2 mg/kg/day, after 6 weeks of treatment",−26.3%
same,Reduction from baseline in mean MCSF,"[1]; 0.2 mg/kg/day, after 10 weeks of treatment",−22.4%
same,Reduction from baseline in mean MCSF,"[1]; 0.2 mg/kg/day, after 14 weeks of treatment",−22.2%
same,"100% reduction (seizure freedom during entire 14-week treatment period), n of subjects","[1]; 0.2 mg/kg/day, n = 39",3
same,"Longest seizure free interval, median","[1]; 0.2 mg/kg/day, n = 39",14 days
same,"Percent change in convulsive seizure frequency per 28 days, LS means ± SE","[1]; 0.2 mg/kg/day, n = 39",−22.50 ± 9.28%
same,"Percent change in convulsive seizure frequency per 28 days, median","[1]; 0.2 mg/kg/day, n = 39",−37.6%
same,"Responder analysis ≥25% reduction in MCSF, % of subjects","[1]; 0.2 mg/kg/day, n = 39",(61.5%)
same,"Responder analysis ≥25% reduction in MCSF, OR vs placebo","[1]; 0.2 mg/kg/day, n = 39",3.80
same,"Responder analysis ≥25% reduction in MCSF, n of subjects","[1]; 0.2 mg/kg/day, n = 39",24
same,"Responder analysis ≥50% reduction in MCSF, % of subjects","[1]; 0.2 mg/kg/day, n = 39",(41.0%)
same,"Responder analysis ≥50% reduction in MCSF, OR vs placebo","[1]; 0.2 mg/kg/day, n = 39",10.10
same,"Responder analysis ≥50% reduction in MCSF, n of subjects","[1]; 0.2 mg/kg/day, n = 39",16
same,"Responder analysis ≥75% reduction in MCSF, % of subjects","[1]; 0.2 mg/kg/day, n = 39",(20.5%)
same,"Responder analysis ≥75% reduction in MCSF, OR vs placebo","[1]; 0.2 mg/kg/day, n = 39",10.46
same,"Responder analysis ≥75% reduction in MCSF, n of subjects","[1]; 0.2 mg/kg/day, n = 39",8
same,"Change in convulsive seizure frequency per 28 days, % Difference from placebo, LS mean (key secondary endpoint)","[1]; 0.2 mg/kg/day, n = 39, baseline vs titration + maintenance",−33.74%
same,"Near-seizure freedom (0 or a single seizure during 14-week Treatment Period), % of subjects",[1]; 0.2 mg/kg/day,12.8%
same,"Near-seizure freedom (0 or a single seizure during 14-week Treatment Period), number of subjects",[1]; 0.2 mg/kg/day,5
same,"Longest seizure free interval, estimate of median treatment difference",[1]; 0.8 mg/kg/day vs placebo,-11.5 days
same,Greater reduction in mean MCSF compared with placebo,[1]; 0.8 mg/kg/day,63.9%
same,Reduction from baseline in mean MCSF,"[1]; 0.8 mg/kg/day, after 6 weeks of treatment",−62.4%
same,Reduction from baseline in mean MCSF,"[1]; 0.8 mg/kg/day, after 10 weeks of treatment",−61.8%
same,Reduction from baseline in mean MCSF,"[1]; 0.8 mg/kg/day, after 14 weeks of treatment",−62.2%
same,"100% reduction (seizure freedom during entire 14-week treatment period), n of subjects","[1]; 0.8 mg/kg/day, n = 40",3
same,"Longest seizure free interval, median","[1]; 0.8 mg/kg/day, n = 40",20.5 days
same,"Percent change in convulsive seizure frequency per 28 days, median","[1]; 0.8 mg/kg/day, n = 40",−72.4%
same,"Responder analysis ≥25% reduction in MCSF, % of subjects","[1]; 0.8 mg/kg/day, n = 40",(92.5%)
same,"Responder analysis ≥25% reduction in MCSF, OR vs placebo","[1]; 0.8 mg/kg/day, n = 40",42.91
same,"Responder analysis ≥25% reduction in MCSF, n of subjects","[1]; 0.8 mg/kg/day, n = 40",37
same,"Responder analysis ≥50% reduction in MCSF, % of subjects","[1]; 0.8 mg/kg/day, n = 40",(70.0%)
same,"Responder analysis ≥50% reduction in MCSF, OR vs placebo","[1]; 0.8 mg/kg/day, n = 40",29.10
same,"Responder analysis ≥50% reduction in MCSF, n of subjects","[1]; 0.8 mg/kg/day, n = 40",28
same,"Responder analysis ≥75% reduction in MCSF, OR vs placebo","[1]; 0.8 mg/kg/day, n = 40",49.49
same,"Responder analysis ≥75% reduction in MCSF, n of subjects","[1]; 0.8 mg/kg/day, n = 40",18
same,"Change in convulsive seizure frequency per 28 days, % Difference from placebo, LS mean (primary endpoint)","[1]; 0.8 mg/kg/day, n = 40, baseline vs titration + maintenance",−63.89%
same,"Near-seizure freedom (0 or a single seizure during 14-week Treatment Period), % of subjects",[1]; 0.8 mg/kg/day,25%
same,"Near-seizure freedom (0 or a single seizure during 14-week Treatment Period), number of subjects",[1]; 0.8 mg/kg/day,10
same,"BRIEF BRI, improvement compared to baseline as compared to placebo","[2]; 0.2 mg/kg/day, P<0.05",significant improvement
same,"BRIEF Global Executive Composite, change from baseline, mean",[2]; 0.2 mg/kg/day,−4.4 ± 22.3
same,"BRIEF BRI, improvement compared to baseline as compared to placebo","[2]; 0.8 mg/kg/day, P<0.05",statistically significant improvement
same,"BRIEF GEC, improvement compared to baseline as compared to placebo","[2]; 0.8 mg/kg/day, P<0.05",statistically significant improvement
same,"BRIEF Global Executive Composite, change from baseline, mean",[2]; 0.8 mg/kg/day,−11.0 ± 29.1
same,"BRIEF-P, difference from placebo","[2]; 0.2 and 0.8 mg/kg/day, hydrochloride",No changes
